Measured values: PubChem BioAssay (NCI)
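These data come from cells grown in 96-well plates and exposed to compound for 48 hours at five concentrations. GI50 marks 50% less growth. The concentration for full growth arrest is given as TGI.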

Key:
Experiment in all cases: NCI tumour cell line growth inhibition, 48 h
[1] = test system: SF-295 CNS
[2] = test system: PC-3 prostate
[3] = test system: SR leukemia
[4] = test system: 786-0 renal
[5] = test system: UACC-257 melanoma
[6] = test system: SK-OV-3 ovarian
[7] = test system: RXF 393 renal
[8] = test system: HOP-92 NSCLC
[9] = test system: SW-620 colon
[10] = test system: HCT-15 colon
[11] = test system: SN12C renal
[12] = test system: NCI-H226 lung
[13] = test system: HT29 colon
[14] = test system: SK-MEL-5 melanoma
[15] = test system: CCRF-CEM leukemia
[16] = test system: OVCAR-5 ovarian
[17] = test system: HOP-62 NSCLC
[18] = test system: HL-60(TB) leukemia
[19] = test system: DU-145 prostate
[20] = test system: NCI/ADR-RES ovarian
[21] = test system: LOX IMVI melanoma
[22] = test system: IGROV1 ovarian
[23] = test system: EKVX NSCLC
[24] = test system: T-47D breast
[25] = test system: NCI-H23 lung
[26] = test system: BT-549 breast
[27] = test system: HCC-2998 colon
[28] = test system: MDA-MB-435
[29] = test system: TK-10 renal
[30] = test system: OVCAR-4 ovarian
[31] = test system: SF-268 CNS
[32] = test system: OVCAR-3 ovarian
[33] = test system: UO-31 renal
[34] = test system: A549 NSCLC
[35] = test system: SK-MEL-2 melanoma
[36] = test system: COLO 205 colon
[37] = test system: SK-MEL-28 melanoma
[38] = test system: MDA-MB-231 breast
[39] = test system: A498 renal
[40] = test system: MCF7 breast
[41] = test system: U251 CNS
[42] = test system: NCI-H522 lung
[43] = test system: MALME-3M melanoma
[44] = test system: M14 melanoma
[45] = test system: UACC-62 melanoma
[46] = test system: SNB-19 CNS
[47] = test system: NCI-H460 lung
[48] = test system: OVCAR-8 ovarian
[49] = test system: SNB-75 CNS
[50] = test system: ACHN renal
[51] = test system: HCT-116 colon
[52] = test system: SF-539 CNS
[53] = test system: RPMI-8226 leukemia
[54] = test system: MOLT-4 leukemia
[55] = test system: KM12 colon
[56] = test system: HS 578T breast
[57] = test system: K-562 leukemia

CCN1CCN(c2nc(NCCCNc3ccnc4cc(Cl)ccc34)c3ccccc3n2)CC1
GI50 [1]: 1.66 µM | TGI [1]: 3.37 µM | GI50 [2]: 3.09 µM | TGI [2]: 14.5 µM | GI50 [3]: 1.29 µM | TGI [3]: 5.44 µM | GI50 [4]: 2.18 µM | TGI [4]: 5.82 µM | GI50 [5]: 2.01 µM | TGI [5]: 3.97 µM | GI50 [6]: 2.98 µM | TGI [6]: 9.23 µM | GI50 [7]: 1.51 µM | TGI [7]: 3.29 µM | GI50 [8]: 1.78 µM | TGI [8]: 4.64 µM | GI50 [9]: 2.36 µM | TGI [9]: 7.63 µM | GI50 [10]: 2.6 µM | TGI [10]: 10.9 µM | GI50 [11]: 2.6 µM | TGI [11]: 11.5 µM | GI50 [12]: 4.97 µM | TGI [12]: 26 µM | GI50 [13]: 2.6 µM | TGI [13]: 7.22 µM | GI50 [14]: 1.74 µM | TGI [14]: 3.11 µM | GI50 [15]: 2.88 µM | TGI [15]: 10.3 µM | GI50 [16]: 3 µM | TGI [16]: 11 µM | GI50 [17]: 1.79 µM | TGI [17]: 4.91 µM | GI50 [18]: 2.18 µM | TGI [18]: 4.25 µM | GI50 [19]: 3.05 µM | TGI [19]: 13.2 µM | GI50 [20]: 15.2 µM | TGI [20]: 32.3 µM | GI50 [21]: 1.61 µM | TGI [21]: 3.13 µM | GI50 [22]: 2.36 µM | TGI [22]: 10.9 µM | GI50 [23]: 3.03 µM | TGI [23]: 14.4 µM | GI50 [24]: 1.87 µM | TGI [24]: 5.5 µM | GI50 [25]: 4.29 µM | TGI [25]: 16.9 µM | GI50 [26]: 3.45 µM | TGI [26]: 13.6 µM | GI50 [27]: 1.87 µM | TGI [27]: 6.09 µM | GI50 [28]: 1.92 µM | TGI [28]: 3.53 µM | GI50 [29]: 2.17 µM | TGI [29]: 4.79 µM | GI50 [30]: 2.12 µM | TGI [30]: 9.57 µM | GI50 [31]: 2.59 µM | TGI [31]: 10.7 µM | GI50 [32]: 2.9 µM | TGI [32]: 10.3 µM | GI50 [33]: 1.49 µM | TGI [33]: 2.97 µM | GI50 [34]: 2.84 µM | TGI [34]: 11.9 µM | GI50 [35]: 2.14 µM | TGI [35]: 4.88 µM | GI50 [36]: 1.66 µM | TGI [36]: 3.46 µM | GI50 [37]: 1.91 µM | TGI [37]: 3.9 µM | GI50 [38]: 2.08 µM | TGI [38]: 5.14 µM | GI50 [39]: 11.3 µM | TGI [39]: 23.5 µM | GI50 [40]: 1.93 µM | TGI [40]: 11.1 µM | GI50 [41]: 2.66 µM | TGI [41]: 7.17 µM | GI50 [42]: 2.92 µM | TGI [42]: 6.14 µM | GI50 [43]: 1.78 µM | TGI [43]: 3.45 µM | GI50 [44]: 1.86 µM | TGI [44]: 3.63 µM | GI50 [45]: 1.87 µM | TGI [45]: 3.58 µM | GI50 [46]: 2.96 µM | TGI [46]: 11.5 µM | GI50 [47]: 2.14 µM | TGI [47]: 5.1 µM | GI50 [48]: 3.5 µM | TGI [48]: 12.9 µM | GI50 [49]: 1.78 µM | TGI [49]: 6.88 µM | GI50 [50]: 2.04 µM | TGI [50]: 4.54 µM | GI50 [51]: 2.25 µM | TGI [51]: 6.53 µM | GI50 [52]: 1.71 µM | TGI [52]: 3.34 µM | GI50 [53]: 2.12 µM | TGI [53]: 6.04 µM | GI50 [54]: 2.07 µM | TGI [54]: 9.04 µM | GI50 [55]: 2.74 µM | TGI [55]: 11.4 µM | GI50 [56]: 2.24 µM | TGI [56]: 6.22 µM | GI50 [57]: 2.23 µM | TGI [57]: 7.14 µM
